Measurements from patent publication US20250171457A1, “NITROGEN-CONTAINING HETEROCYCLIC COMPOUND HAVING NRF2 ACTIVATION EFFECT” (CHUGAI SEIYAKU KABUSHIKI KAISHA, priority 2022, published 2025).

System: Nrf2 transcriptional activity (pARE-Luc reporter) in HepG2 cells
Test: In vitro Nrf2 transcriptional activity measurement by ARE-dependent reporter assay in HepG2 cell
Format: cell-based, human
Conditions: Homo sapiens; HepG2 cells transfected with pARE-Luc, 4 hours at 37° C.; luciferase activity of Example 1-54 or Example 17-23 at 3.75 μM defined as 100%
Summary of the method: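 Luminescence readout (Bright-Glo) after 4 h, 37° C compound exposure of HepG2 cells carrying the ARE-luciferase vector pGL4.37. Each well converted to % response versus reference compound at 3.75 μM, and EC50 derived from dose-response curves.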

Row | Structure (SMILES) | EC50
1 | COCC1CN(c2cc(Cl)c(C(=O)N3COc4c(cccc4-c4cc(N5C6CCC5COC6)c(C(=O)O)cc4F)C3)c(Cl)c2)C1 [Compound 4-4, 4-[3-[2,6-Dichloro-4-[3-(methoxymethyl)azetidin-1-yl]benzoyl]-2,4-dihydro-1,3-benzoxazin-8-yl]-5-fluoro-2-(3-oxa-8-azabicyclo[3.2.1]octan-8-yl)benzoic acid] | 3.2 nM
2 | COC1(C)CN(c2cc(Cl)c(C(=O)N3COc4c(cccc4-c4cc(N5C6CCC5COC6)c(C(=O)O)cc4F)C3)c(Cl)c2)C1 [Compound 4-5, 4-[3-[2,6-Dichloro-4-(3-methoxy-3-methylazetidin-1-yl)benzoyl]-2,4-dihydro-1,3-benzoxazin-8-yl]-5-fluoro-2-(3-oxa-8-azabicyclo[3.2.1]octan-8-yl)benzoic acid] | 1.3 nM
3 | O=C(O)c1cc(F)c(-c2cccc3c2OCN(C(=O)c2c(Cl)cc(N4CC5(COC5)C4)cc2Cl)C3)cc1N1C2CCC1COC2 [Compound 4-6, 4-[3-[2,6-Dichloro-4-(2-oxa-6-azaspiro[3.3]heptan-6-yl)benzoyl]-2,4-dihydro-1,3-benzoxazin-8-yl]-5-fluoro-2-(3-oxa-8-azabicyclo[3.2.1]octan-8-yl)benzoic acid] | 8 nM
4 | O=C(O)c1cc(F)c(-c2cccc3c2OCN(C(=O)c2c(Cl)cc(N4CC5(CCC5)C4)cc2Cl)C3)cc1N1C2CCC1COC2 [Compound 4-7, 4-[3-[4-(2-Azaspiro[3.3]heptan-2-yl)-2,6-dichlorobenzoyl]-2,4-dihydro-1,3-benzoxazin-8-yl]-5-fluoro-2-(3-oxa-8-azabicyclo[3.2.1]octan-8-yl)benzoic acid] | 3.3 nM
5 | O=C(O)c1cc(F)c(-c2cccc3c2OCN(C(=O)c2c(Cl)cc(N4CCN5CCC[C@@H]5C4)cc2Cl)C3)cc1N1C2CCC1COC2 [Compound 4-9, 4-[3-[4-[(8aR)-3,4,6,7,8,8a-Hexahydro-1H-pyrrolo[1,2-a]pyrazin-2-yl]-2,6-dichlorobenzoyl]-2,4-dihydro-1,3-benzoxazin-8-yl]-5-fluoro-2-(3-oxa-8-azabicyclo[3.2.1]octan-8-yl)benzoic acid] | 2.2 nM
6 | O=C(O)c1cc(F)c(-c2cccc3c2OCN(C(=O)c2c(Cl)cc(N4CCN(C5CCOC5)CC4)cc2Cl)C3)cc1N1C2CCC1COC2 (stereo not drawn) [Compound 4-10, 4-[3-[2,6-Dichloro-4-[4-(oxolan-3-yl)piperazin-1-yl]benzoyl]-2,4-dihydro-1,3-benzoxazin-8-yl]-5-fluoro-2-(3-oxa-8-azabicyclo[3.2.1]octan-8-yl)benzoic acid] | 4.2 nM
7 | O=C(O)c1cc(F)c(-c2cccc3c2OCN(C(=O)c2c(Cl)cc(N4CCNC5(CC5)C4)cc2Cl)C3)cc1N1C2CCC1COC2 [Compound 4-11, 4-[3-[2,6-Dichloro-4-(4,7-diazaspiro[2.5]octan-7-yl)benzoyl]-2,4-dihydro-1,3-benzoxazin-8-yl]-5-fluoro-2-(3-oxa-8-azabicyclo[3.2.1]octan-8-yl)benzoic acid] | 25 nM
8 | O=C(O)c1cc(F)c(-c2cccc3c2OCN(C(=O)c2c(Cl)cc(N4CCN(C5CC5)CC4)cc2Cl)C3)cc1N1C2CCC1COC2 [Compound 4-12, 4-[3-[2,6-Dichloro-4-(4-cyclopropylpiperazin-1-yl)benzoyl]-2,4-dihydro-1,3-benzoxazin-8-yl]-5-fluoro-2-(3-oxa-8-azabicyclo[3.2.1]octan-8-yl)benzoic acid] | 2.1 nM
9 | O=C(O)c1cc(F)c(-c2cccc3c2OCN(C(=O)c2c(Cl)cc(N4CCN5CCOC[C@@H]5C4)cc2Cl)C3)cc1N1C2CCC1COC2 [Compound 4-13, 4-[3-[4-[(9aS)-3,4,6,7,9,9a-Hexahydro-1H-pyrazino[2,1-c][1,4]oxazin-8-yl]-2,6-dichlorobenzoyl]-2,4-dihydro-1,3-benzoxazin-8-yl]-5-fluoro-2-(3-oxa-8-azabicyclo[3.2.1]octan-8-yl)benzoic acid] | 5.8 nM
10 | O=C(O)c1cc(F)c(-c2cccc3c2OCN(C(=O)c2c(Cl)cc(N4CCN5CCOC[C@H]5C4)cc2Cl)C3)cc1N1C2CCC1COC2 [Compound 4-14, 4-[3-[4-[(9aR)-3,4,6,7,9,9a-Hexahydro-1H-pyrazino[2,1-c][1,4]oxazin-8-yl]-2,6-dichlorobenzoyl]-2,4-dihydro-1,3-benzoxazin-8-yl]-5-fluoro-2-(3-oxa-8-azabicyclo[3.2.1]octan-8-yl)benzoic acid] | 9 nM
11 | CC(C)(O)CN1CCN(c2cc(Cl)c(C(=O)N3COc4c(cccc4-c4cc(N5C6CCC5COC6)c(C(=O)O)cc4F)C3)c(Cl)c2)CC1 [Compound 4-15, 4-[3-[2,6-Dichloro-4-[4-(2-hydroxy-2-methylpropyl)piperazin-1-yl]benzoyl]-2,4-dihydro-1,3-benzoxazin-8-yl]-5-fluoro-2-(3-oxa-8-azabicyclo[3.2.1]octan-8-yl)benzoic acid] | 3.1 nM
12 | O=C(O)c1cc(F)c(-c2cccc3c2OCN(C(=O)c2c(Cl)cc(N4CCN(CC5CCCO5)CC4)cc2Cl)C3)cc1N1C2CCC1COC2 (stereo not drawn) [Compound 4-16, 4-[3-[2,6-Dichloro-4-[4-(oxolan-2-ylmethyl)piperazin-1-yl]benzoyl]-2,4-dihydro-1,3-benzoxazin-8-yl]-5-fluoro-2-(3-oxa-8-azabicyclo[3.2.1]octan-8-yl)benzoic acid] | 2.9 nM
13 | O=C(O)c1cc(F)c(-c2cccc3c2OCN(C(=O)c2c(Cl)cc(N4C[C@@H]5C[C@H]4CO5)cc2Cl)C3)cc1N1C2CCC1COC2 [Compound 4-17, 4-[3-[2,6-Dichloro-4-[(1S,4S)-2-oxa-5-azabicyclo[2.2.1]heptan-5-yl]benzoyl]-2,4-dihydro-1,3-benzoxazin-8-yl]-5-fluoro-2-(3-oxa-8-azabicyclo[3.2.1]octan-8-yl)benzoic acid] | 4 nM
14 | C[C@@H]1CN(c2cc(Cl)c(C(=O)N3COc4c(cccc4-c4cc(N5C6CCC5COC6)c(C(=O)O)cc4F)C3)c(Cl)c2)CCO1 [Compound 4-18, 4-[3-[2,6-Dichloro-4-[(2R)-2-methylmorpholin-4-yl]benzoyl]-2,4-dihydro-1,3-benzoxazin-8-yl]-5-fluoro-2-(3-oxa-8-azabicyclo[3.2.1]octan-8-yl)benzoic acid] | 3.6 nM
15 | O=C(O)c1cc(F)c(-c2cccc3c2OCN(C(=O)c2c(Cl)cc(N4CCOCC4)cc2Cl)C3)cc1N1C2CCC1COC2 [Compound 4-19, 4-[3-(2,6-Dichloro-4-morpholin-4-ylbenzoyl)-2,4-dihydro-1,3-benzoxazin-8-yl]-5-fluoro-2-(3-oxa-8-azabicyclo[3.2.1]octan-8-yl)benzoic acid] | 2.9 nM
16 | O=C(O)c1ccc(-c2cccc3c2OCN(C(=O)c2c(Cl)cc(N4CC[C@@H](O)C4)cc2Cl)C3)cc1N1CCOCC1 [Compound 4-20, 4-[3-[2,6-Dichloro-4-[(3R)-3-hydroxypyrrolidin-1-yl]benzoyl]-2,4-dihydro-1,3-benzoxazin-8-yl]-2-morpholin-4-ylbenzoic acid] | 3 nM
17 | O=C(O)c1ccc(-c2cccc3c2OCN(C(=O)c2c(Cl)cc(N4CC5(COC5)C4)cc2Cl)C3)cc1N1CCOCC1 [Compound 4-21, 4-[3-[2,6-Dichloro-4-(2-oxa-6-azaspiro[3.3]heptan-6-yl)benzoyl]-2,4-dihydro-1,3-benzoxazin-8-yl]-2-morpholin-4-ylbenzoic acid] | 7.4 nM
18 | CN1CCCN(c2cc(Cl)c(C(=O)N3COc4c(cccc4-c4cc(N5CCOCC5)c(C(=O)O)cc4F)C3)c(Cl)c2)CC1 [Compound 4-22, 4-[3-[2,6-Dichloro-4-(4-methyl-1,4-diazepan-1-yl)benzoyl]-2,4-dihydro-1,3-benzoxazin-8-yl]-5-fluoro-2-morpholin-4-ylbenzoic acid] | 1.8 nM
19 | COCCN(C)c1cc(Cl)c(C(=O)N2COc3c(cccc3-c3cc(N4CCOCC4)c(C(=O)O)cc3F)C2)c(Cl)c1 [Compound 4-23, 4-[3-[2,6-Dichloro-4-[2-methoxyethyl(methyl)amino]benzoyl]-2,4-dihydro-1,3-benzoxazin-8-yl]-5-fluoro-2-morpholin-4-ylbenzoic acid] | 1.5 nM
20 | O=C(O)c1cc(F)c(-c2cccc3c2OCN(C(=O)c2c(Cl)cc(N4CC5COCC5C4)cc2Cl)C3)cc1N1CCOCC1 (stereo not drawn) [Compound 4-24, 4-[3-[4-(1,3,3a,4,6,6a-Hexahydrofuro[3,4-c]pyrrol-5-yl)-2,6-dichlorobenzoyl]-2,4-dihydro-1,3-benzoxazin-8-yl]-5-fluoro-2-morpholin-4-ylbenzoic acid] | 2.7 nM
21 | COCCN1CCCN(c2cc(Cl)c(C(=O)N3COc4c(cccc4-c4cc(N5CCOCC5)c(C(=O)O)cc4F)C3)c(Cl)c2)CC1 [Compound 4-25, 4-[3-[2,6-Dichloro-4-[4-(2-methoxyethyl)-1,4-diazepan-1-yl]benzoyl]-2,4-dihydro-1,3-benzoxazin-8-yl]-5-fluoro-2-morpholin-4-ylbenzoic acid] | 1.9 nM
22 | O=C(O)c1cc(F)c(-c2cccc3c2OCN(C(=O)c2c(Cl)cc(N4CCC5(CCOCC5)C4)cc2Cl)C3)cc1N1CCOCC1 [Compound 4-26, 4-[3-[2,6-Dichloro-4-(8-oxa-2-azaspiro[4.5]decan-2-yl)benzoyl]-2,4-dihydro-1,3-benzoxazin-8-yl]-5-fluoro-2-morpholin-4-ylbenzoic acid] | 8.2 nM
23 | O=C(O)c1cc(F)c(-c2cccc3c2OCN(C(=O)c2c(Cl)cc(N4CCC(CO)CC4)cc2Cl)C3)cc1N1CCOCC1 [Compound 4-27, 4-[3-[2,6-Dichloro-4-[4-(hydroxymethyl)piperidin-1-yl]benzoyl]-2,4-dihydro-1,3-benzoxazin-8-yl]-5-fluoro-2-morpholin-4-ylbenzoic acid] | 1.1 nM
24 | O=C(O)c1cc(F)c(-c2cccc3c2OCN(C(=O)c2c(Cl)cc(N4CC[C@@H](O)C4)cc2Cl)C3)cc1N1CCOCC1 [Compound 4-28, 4-[3-[2,6-Dichloro-4-[(3R)-3-hydroxypyrrolidin-1-yl]benzoyl]-2,4-dihydro-1,3-benzoxazin-8-yl]-5-fluoro-2-morpholin-4-ylbenzoic acid] | 1.6 nM
